Structures are written as SMILES. Read-outs that look alike come from different tables or passages of the source.

By IC50 is commonly meant the concentration at which inhibition is half-maximal. For orientation: IC90 means the concentration at which the effect reaches the 90% level. One may read the CC50 as the concentration at which the toxic effect on the cells reaches its halfway point.

Data set [1] relates to PHA-stimulated human PBMCs. Briefly: Cytotoxicity assay (MTT) in uninfected PBMCs. The data set is classed as cell-based.
For another data set, the system named is HIV-1NL4-3. The experiment in a line: In vitro antiviral assay (p24 ELISA) in PHA-stimulated human PBMCs. Particulars: for IC50: read-out: NL4-3 Antiviral (PBMC) IC50; for IC90: read-out: NL4-3 Antiviral (PBMC) IC90.
Where [2] appears, read: Human immunodeficiency virus 1, NL43, PBMC, in Homo sapiens, 168 h.
The mark [3] stands for this setting: PHA-stimulated human PBMCs, 7 days, p24 ELISA.

On to `COc1cnc(-n2cnc(C)n2)c2[nH]cc(C(=O)C(=O)N3CCN(C(=O)c4ccccc4)CC3)c12` [BMS-626529], for which the “cytotoxicity better than NBD-14189” value in data set [1] (PBMC, compared with NBD-14189) is on record as “about 3 fold”. In addition, in the data set with HIV-1NL4-3 (setting [2]), the IC50 worked out at 0.28 µM and the IC90 was more than 10 µM.
As for `C#C[C@]1(CO)O[C@@H](n2cnc3c(N)nc(F)nc32)C[C@@H]1O` [EFdA], the CC50 in data set [1] (uninfected PBMCs, MTT, day 7, read-out: PBMC Toxicity CC50) was 23 µM. For the same compound, the CC90 in data set [1] (uninfected PBMCs, MTT, day 7, read-out: PBMC Toxicity CC90) is more than 100 µM. Besides, in the data set with HIV-1NL4-3 (PBMC CC50 / NL4-3 IC50), the “SI CC50/IC50” value is reported as 13,000. In the data set on HIV-1NL4-3 (setting [3]), the 50% inhibitory concentration (IC50) worked out at 0.0017 µM and the IC90 is more than 0.066 µM.
